Measured values published in US20110104144A1, “METHODS FOR TREATING CUTANEOUS LUPUS USING AMINOISOINDOLINE COMPOUNDS” (CELGENE CORPORATION, priority 2005, published 2011).

Legend:
Format in all cases: cell-based, Human
[1] = test system: CD51/61; test: HUVEC cell surface expression of CD51/61 by flow cytometry; details: unstimulated, 10 μM, FIG. 1
Protocol: (§1) A) Materials. Human Umbilical Vein Endothelial Cells (HUVEC) sent from LifeBank, were tested in Experiments A-K with several adhesion molecules. The adhesion molecules tested were CD51/CD61FITC (obtained from BD PharMingen, San Diego, Calif.; Catalog No. 555505), ICAM-1 PE also known as CD54 (obtained from BD PharMingen, San Diego, Calif.; Catalog No. 555511), ICAM-2 also known as CD102 (obtained from Research Diagnostics Inc., Concord, Mass.; Catalog No. RDI-CBL539FT), VCAM-1 (obtained from BD PharMingen, San Diego, Calif.; Catalog No. 555647), P-Selectin FITC (obtained from R&D Systems, Inc., Minneapolis, Minn.; Catalog No. BBA34), E-Selectin FITC (obtained from R&D Systems, Inc., Minneapolis, Minn.; Catalog No. BBA21), HLA Class I FITC (obtained from BD PharMingen, San Diego, Calif.; Catalog No. 555553), HLA Class II PE (obtained from BD PharMingen, San Diego, Calif.; Catalog No. 555558), CD44 FITC (obtained from BD PharMingen, San Diego, Calif.; Catalog No. 347943), CD144 (Cadherin VE) (obtained from CHEMICON International, Inc., Temecula, Calif.; Catalog No. MAB1989), IgG2a FITC (obtained from BD PharMingen, San Diego, Calif.; Cat #556652), Ms IgG2a (obtained from CHEMICON International, Inc., Temecula, Calif.; Cat. No. PP102), IgG1 FITC (obtained from BD PharMingen, San Diego, Calif.; Cat. No. 349041) and IgG1 PE (obtained from BD PharMingen, San Diego, Calif.; Cat. No. 349043).
(§2) Compound (1) ((+)-2-[1-(3-ethoxy-4-methoxyphenyl)-2-methylsulfonylethyl]-4-acetylaminoisoindoline-1,3-dione) and Compound (2) (4-(amino)-2-(2,6-dioxo(3-piperidyl))-isoindoline-1,3-dione) were obtained according to the preparation procedures disclosed herein. 16,16-Dimethyl-PGE2 (hereinafter PGE2) was obtained from BIOMOL International, L.P. (Plymouth Meeting, Pa.; Catalog No. PG-021). TNF-αwas obtained from Pierce Biotechnology (Rockford, Ill.; Catalog No. RTNFA 10).
(§3) B) Methods. […]

[2] = test system: CD44; test: HUVEC cell surface expression of CD44 by flow cytometry; details: 10 μM, FIG. 4
Protocol: as §1, §2, §3

[3] = test system: P-Selectin; test: HUVEC cell surface expression of P-Selectin by flow cytometry; details: 10 μM
Protocol: as §1, §2
B) Methods. HUVEC's were plated on 6-well plates at a concentration of 1×10^5 cells/well in 3 ml EBM® endothelial basal media (obtained from Cambrex Corporation, East Rutherford, N.J.; Catalog No. CC-3121) and singlequots (obtained from Cambrex Corporation, East Rutherford, N.J.; Catalog No. CC-4133). The cells were incubated overnight in a 37° C. and 5% CO2 humidified incubator to allow cells to attach. The old media was removed in next day and replaced with 3 ml fresh EBM® endothelial basal media. Then, samples of 3 μl of 10 mM of Compound (1), Compound (2), PGE2 and a mixture of Compound (1) and PGE2 were added separately to each well of the plates in duplicate to give a final concentration of 10 μM. An unstimulated DMSO control and a TNF-α-stimulated control were also added in duplicate. The plates were incubated in a 37° C. and 5% CO2 humidified incubator for 1 hr. […] The plates were incubated overnight in a 37° C. and 5% CO2 humidified incubator. The cells were also tested without TNF-α. The media was removed in the next day and each well was washed with 3 ml of phosphate buffered saline (PBS). Then, 3 ml of PBS containing 1 mM of EDTA (ethylenediaminetetraacetate) was added to each well to allow the cells to detach. Once the cells detached, they were gently scraped and placed in 4.5 ml Falcon tubes. The tubes were then centrifuged at 1200 RPM for 8 minutes at 4° C. The supernatant was carefully removed. Next, 50 μl of PBS-FACS buffer (5% fetal bovine serum (FBS), 0.02% sodium azide in PBS) and 20 μl of antibodies were added to all tubes as follows:
After the antibodies were added, the tubes were incubated on ice for 30 minutes and covered with foil. Then, the tubes were centrifuged at 1200 RPM for 8 minutes at 4° C. The supernatant was carefully removed. The cells were re-suspended in 2 ml of PBS-FACS buffer and centrifuged again as above. The supernatant was carefully removed again and the cells were re-suspended in 500 μl of PBS-FACS buffer. The tubes were then analyzed using a flow cytometer. […]

Compound: CCOc1cc(C(CS(C)(=O)=O)N2C(=O)c3cccc(NC(C)=O)c3C2=O)ccc1OC (single isomer, unassigned; (+)) [Compound (1), (+)-2-[1-(3-ethoxy-4-methoxyphenyl)-2-methylsulfonylethyl]-4-acetylaminoisoindoline-1,3-dione]
- CD51/61 cell surface expression compared to untreated conditions [1]: unaffected
- inhibition of TNF-α-stimulated cell surface expression of CD44 [2]: approximately 30%
- increase of TNF-α-induced cell expression of P-Selectin above baseline ([3]; TNF-α (1 ng/ml) stimulated, FIG. 3): 40%
- increase of P-Selectin cell surface expression ([3]; TNF-α stimulated, FIG. 5): approximately 35%
- inhibition of P-Selectin expression ([3]; unstimulated, FIG. 2): approximately 55%
